Data set [1] is described as follows: Log P of tested compounds. Type of data set: physicochemical.
The test system of a further data set is philtrum skin. Kind of data set: Cooling sensation after ointment applied to philtrum skin. In kind it is in vivo, human. As to conditions: for Duration of cooling, Philtrum Skin: 5 mg/ml in Aquaphor ointment on philtrum skin; for duration of cooling (FIG. 1): 40 to 70 mg of 1% wt/vol (10 mg/ml) ointment on skin above the upper lips; for duration of action / onset on philtrum skin: Study 1. An excerpt: A reliable place for topical application is the skin above the upper lip (above the vermilion border of the lips), on the philtrum, lateral to the philtrum until the nasolabial folds, and on the lower nostrils (subnasale). This part of the face is known to be densely innervated with cold receptors, second only to the surfaces of the eyeball and anogenitalia.
The intensity of the subjective skin sensation is rated as 0, 1, 2 or 3 with: 0 as no change; 1 as slight coolness, cold, or tingling; 2 as clear-cut signal of coolness, cold, or tingling; and 3 as robust cooling or cold. The intervals for recording sensations are 5 to 10 minutes, until two successive zeroes are obtained. The results (shown in FIG. 1) are averaged values of 4 to 6 separate trials in the same individual. The data are plotted using SigmaPlot® (Systat Software, Point Richmond Calif.) and a smoothing function with a negative exponential was used for analysis and statistical fit of the results. Confirmatory trials of cooling action of the long-acting NACE compounds were obtained in 2 to 4 individuals but not quantified for some because of the large number of chemicals that were evaluated
The onset of drug action is taken as the time to reach 2 units of coolness intensity, and offset of drug action is the time when coolness intensity drops below 2, after previously surpassing 2 units. The duration of cooling action is defined as the offset time minus the onset time. […] The quality of the sensation is noted, for example, as pure refreshing coolness, or if the sensation is accompanied by irritation (stinging or burning). The quality of the sensation is not rated for intensity.
For bioassay on the skin, approximately 30 mg was stirred and dissolved in 3 g of warm liquid Aquaphor® ointment to a yield 5 to 10 mg/ml (0.5% to 1.0 wt/vol) ointment. After cooling, 40 to 70 mg of the solid ointment was placed on the tip of a plastic stick and applied to the skin above the upper lip, on the philtrum, and lateral to the philtrum, up to the nasolabial folds, of test subjects and the onset and duration of cooling sensations noted.
The intensity of the subjective skin sensation was rated as 0, 1, 2 or 3 with: 0 as no change; 1 as slight coolness, cold, or tingling; 2 as clear signal of coolness, cold, or tingling; and 3 as robust cooling or cold. The intervals for recording sensations were 5 to 10 minutes, until two successive zeroes were obtained. The results (shown in FIG. 1) are averaged values of 4 to 6 separate trials in the same individual. The data are plotted using SigmaPlot® (Systat Software, Point Richmond, Calif., USA) and a smoothing function with a negative exponential was used for analysis and statistical fit of the results.
The onset of drug action was taken as the time to reach 2 units of coolness intensity, and offset of drug action was the time when coolness intensity drops below 2, after previously surpassing 2 units. The duration of cooling action was defined as the offset time minus the onset time. […] The quality of the sensation was also noted: such as pure refreshing coolness, or if the sensation was accompanied by irritation (stinging or burning). The quality of the sensation was not rated for intensity.
For the results in FIG. 1, the test compounds were singly applied to the skin above the upper lips at a 40 to 70 mg dose of a 1% wt/vol (10 mg/ml) ointment. Subsequently, for the results shown in Table 3, the test dose on the philtrum was reduced to a 0.5% wt/vol (5 mg/ml) ointment. The reason for choosing a lower dose was to increase the number of trials per individual and to have a reduced chance of substances accumulating in the skin.

Another data set deals with eyelids/ocular surface. In words: Cooling after wiping closed eyelids with a towelette. Type of data set: in vivo, human. As to conditions: eye wipes, 1 mg/ml in 5%-95% v/v ethanol-distilled water. The procedure:
A second method of testing was to take a towelette saturated with a test solution of the cooling agent and to wipe the towelette over the dosed eyelids. The presence or absence of cooling (or irritanty, if applicable) sensations was then recorded at 10 minute intervals until the cessation of coolness in two successive intervals.
For testing of cooling compounds delivered to the eyelids with a towelette, the following procedures were used in the experiments of Table 3 and in Study 5 and 6. Three ml of liquid suspension or solution in distilled water was added to a 0.4 g cotton rectangle (50 mm×60 mm) (CS-being, Daisan Cotton, Japan) and individually sealed with a vaccuum apparatus (Foodsaver®, Jarden Corp.). Samples were stored in the freezer or refrigerator and thawed to room temperature before use. Wiping with the cotton pad delivers 40 to 45 μl of liquid composition to the eyelids ([…] to 22 μl per eye). So, if the concentration of the test substance was 1 mg/ml, the dose delivered to both eyes is a total of ˜40 to […], or ˜20 μg per eye. This method allows a reliable delivery of test substances because the dissolved or suspended particles in solution are evenly dispersed on the cotton pad in an excess volume of liquid. The presence or absence of cooling sensations was noted as being present or absent at 5 to 10 min intervals until no coolness was noticeable in two successive test intervals. Only the duration of cooling on the ocular surface was recorded, without an attempt to quantify the intensity of the sensation.

The subject of data set [2] is dorsal surface of the tongue. As to conditions: threshold amount producing cooling on tongue of human volunteers; values from Watson US 04178459; cited from earlier work.
The next data set relates to periorbital skin. In words: Ointment applied to periorbital skin: coolness, eye irritancy, alerting (Study 3). Type of data set: in vivo, human. The settings on record: ointment on periorbital area; for skin coolness and refreshment: conditions similar to Study 3. An excerpt: The ointment was also applied to the periorbital skin (upper and lower eyelids and on skin adjacent to the lateral canthus) for tests of irritancy near the eyes, and the subject is asked if irritation is present or absent. The intensity of the eye sensation is not rated.
For tests of irritancy near the eyes in Study 3 and 4, the ointment was applied to the periorbital skin (upper and lower eyelids and on skin adjacent to the lateral canthus), and the subject asked if irritation is present or absent. The intensity of the eye sensation is not rated, but just noted as being present or absent
A 1% preparation of 2-isopropyl-5-methyl-cyclohexanecarbonyl D-alanine methyl ester in Aquaphor® ointment was applied bilaterally to the periorbital area of four individuals. […] This experiment was then repeated three days later in the evening with the same individuals whose occupations required daylong activities before a computer screen.

`CC1CCC(C(C)C)C(C(=O)NC2CCOC2=O)C1` (mixture of isomers) [racemic Hsl]: the “Log P” value in data set [1] amounted to 2.5.

Consider `CCCCOC(=O)[C@@H](C)NC(=O)[C@@H]1C[C@H](C)CC[C@H]1C(C)C` [D-Ala nBu Ester], for which the “Duration of cooling, Philtrum Skin” value with philtrum skin was determined as 80 min. Moreover, the “Duration of cooling, Eyelids/Ocular Surface” value with eyelids/ocular surface came out at 40 min. The log partition coefficient (Log P) in data set [1] is listed as 4.4.

`CCCOC(=O)[C@@H](C)NC(=O)[C@@H]1C[C@H](C)CC[C@H]1C(C)C` [D-Ala nPr Ester]: in the data set on philtrum skin, the “Duration of cooling, Philtrum Skin” value is 108 min. In addition, the “Duration of cooling, Eyelids/Ocular Surface” value with eyelids/ocular surface was found to be 65 min. For the same compound, the “Log P” value in data set [1] amounted to 3.8.

For the compound `CC(C)[C@@H]1CC[C@@H](C)C[C@H]1C(=O)N[C@@H]1CCOC1=O` [D-Hsl], the “duration of cooling (FIG. 1)” value in the data set with philtrum skin turned out to be 1.3 h. Also, the “Log P” value in data set [1] is reported as 2.5.

For `COC(=O)[C@@H](C)N(C)C(=O)[C@@H]1C[C@H](C)CC[C@H]1C(C)C` [D-NMe Ala Ester], the “Duration of cooling, Philtrum Skin” value in the data set with philtrum skin was found to be 0 min. In the data set on eyelids/ocular surface, the “Duration of cooling, Eyelids/Ocular Surface” value is 0 min.

For the compound `COC(=O)[C@H](NC(=O)[C@@H]1C[C@H](C)CC[C@H]1C(C)C)C(C)C` [D-Val Me Ester], in data set [1], the “Log P” value is given as 4.2.

As to `COC(=O)CCC(NC(=O)C1CC(C)CCC1C(C)C)C(=O)OC` (centres unmarked) [Glu(OMe) Me Ester], the “Log P” value in data set [1] is recorded as 2.2.

As for `CCOC(=O)CNC(=O)[C@@H]1C[C@H](C)CC[C@H]1C(C)C` [Gly Et Ester (WS-5), reference compound], in the data set with philtrum skin, the “Duration of cooling, Philtrum Skin” value was 24 min; the “duration of cooling (FIG. 1)” value came to 0.5 h; the “duration of action / onset on philtrum skin” value (“duration of action / onset” below) is given as “short duration of action (less than 1 hour) on the philtrum skin or slow onset (more than 5 minutes)”. The “Duration of cooling, Eyelids/Ocular Surface” value in the data set on eyelids/ocular surface came out at 15 min. Besides, in data set [1], the “Log P” value is given as 2.9. The “Threshold tongue” value in data set [2] was 0.2 µg.

In the case of `COC(=O)CNC(=O)C1CC(C)CCC1C(C)C` (centres unmarked) [Gly Me Ester (WS-31), reference compound], the “duration of action / onset” value in the data set on philtrum skin is reported as “short duration of action (less than 1 hour) on the philtrum skin or slow onset (more than 5 minutes)”. The “Log P” value in data set [1] is 2.4. The “Threshold tongue” value in data set [2] is 0.6 µg.

Take `CCCCOC(=O)CNC(=O)[C@@H]1C[C@H](C)CC[C@H]1C(C)C` [Gly nBu Ester]: the “Duration of cooling, Philtrum Skin” value in the data set with philtrum skin worked out at 38 min. The “Duration of cooling, Eyelids/Ocular Surface” value in the data set on eyelids/ocular surface amounted to 35 min. The “Log P” value in data set [1] was 4.0.

Regarding `CCCOC(=O)CNC(=O)[C@@H]1C[C@H](C)CC[C@H]1C(C)C` [Gly nPr Ester], in the data set with philtrum skin, the “Duration of cooling, Philtrum Skin” value is 42 min. Also, in the data set with eyelids/ocular surface, the “Duration of cooling, Eyelids/Ocular Surface” value was determined as 54 min. In data set [1], the log partition coefficient (Log P) was 3.4. Further, the “Threshold tongue” value in data set [2] is 0.3 µg.

For `CCOC(=O)[C@H](C)NC(=O)[C@@H]1C[C@H](C)CC[C@H]1C(C)C` [L-Ala Et Ester], the “Duration of cooling, Philtrum Skin” value with philtrum skin turned out to be 34 min. The “Duration of cooling, Eyelids/Ocular Surface” value with eyelids/ocular surface is 0 min. Further, the “Log P” value in data set [1] amounted to 3.1. Moreover, in data set [2], the “Threshold tongue” value is 0.4 µg.

`COC(=O)[C@H](C)NC(=O)[C@@H]1C[C@H](C)CC[C@H]1C(C)C` [L-Ala Me Ester]: the “Log P” value in data set [1] is reported as 2.8. For the same compound, the “Threshold tongue” value in data set [2] was 0.6 µg.

Consider `CC(C)[C@@H]1CC[C@@H](C)C[C@H]1C(=O)N[C@H]1CCOC1=O` [L-Hsl], for which the “Log P” value in data set [1] came out at 2.5.

For `COC(=O)[C@H](CC(C)C)NC(=O)[C@@H]1C[C@H](C)CC[C@H]1C(C)C` [L-Leu Me Ester], the “Log P” value in data set [1] is reported as 4.3.

Regarding `CC(C)[C@@H]1CC[C@@H](C)C[C@H]1C(=O)N[C@@H](CCCCNC(=O)OCc1ccccc1)C(=O)OC(C)(C)C` [L-Lys(Z) t-Bu Ester], in data set [1], the “Log P” value came out at 5.9.

For the compound `COC(=O)[C@@H]1CCCN1C(=O)[C@@H]1C[C@H](C)CC[C@H]1C(C)C` [L-Pro Me Ester], in data set [1], the “Log P” value came to 3.3.

Regarding `CCOC(=O)[C@H](CO)NC(=O)[C@@H]1C[C@H](C)CC[C@H]1C(C)C` [L-Ser Et Ester], the “Log P” value in data set [1] is reported as 1.8.

As for `COC(=O)[C@@H](NC(=O)[C@@H]1C[C@H](C)CC[C@H]1C(C)C)C(C)C` [L-Val Me Ester], in data set [1], the “Log P” value amounted to 4.2.

`CCOC(=O)C(C)N(C)C(=O)C1CC(C)CCC1C(C)C` [N—Me-D-Ala Et Ester]: the “Log P” value in data set [1] turned out to be 3.2.

On to `CCOC(=O)CN(C)C(=O)[C@@H]1C[C@H](C)CC[C@H]1C(C)C` [Sar Et Ester], for which, in data set [1], the “Log P” value was determined as 2.9. Moreover, the “Threshold tongue” value in data set [2] is 0.8 µg.

Consider `COc1ccc(NC(=O)[C@@H]2C[C@H](C)CC[C@H]2C(C)C)cc1` [WS-12, reference compound], for which the “duration of action / onset” value in the data set with philtrum skin was “short duration of action (less than 1 hour) on the philtrum skin or slow onset (more than 5 minutes)”. The “Log P” value in data set [1] amounted to 5.3. The “Threshold tongue” value in data set [2] was 0.2 µg.

Consider `CC(C)[C@@H]1CC[C@@H](C)C[C@H]1C(=O)NC(C)(C)C` [WS-14], for which the “Log P” value in data set [1] was 4.5. In the data set on periorbital skin, the “irritation of skin / eye surfaces” value is “produced significant skin and eye irritation”; the “skin coolness and refreshment” value is reported as “did not enhance skin coolness or provide satisfactory refreshment”. Moreover, the “Threshold tongue” value in data set [2] is 0.4 µg.

Regarding `CNC(=O)C(C)(C(C)C)C(C)C` [WS-23, N-2,3-trimethyl-2-isopropylbutanamide], the “duration of action / onset” value in the data set on philtrum skin was “short duration of action (less than 1 hour) on the philtrum skin or slow onset (more than 5 minutes)”. Besides, in the data set on periorbital skin, the “irritation of skin / eye surfaces” value is “produced significant skin and eye irritation”; the “skin coolness and refreshment” value is on record as “did not enhance skin coolness or provide satisfactory refreshment”.

On to `CCOC(=O)CCNC(=O)[C@@H]1C[C@H](C)CC[C@H]1C(C)C` [β-Ala Et Ester], for which, in data set [1], the “Log P” value is 3.1. Also, the “Threshold tongue” value in data set [2] was 1.5 µg.

The values above are taken from patent US20110082204A1, “N-alkylcarbonyl-amino acid ester and N-alkylcarbonyl-amino lactone compounds and their use” (priority 2006, published 2011).
